Assay results from ChEMBL document CHEMBL3046337, “Activity landscape analysis, CoMFA and CoMSIA studies of pyrazole CB1 antagonists” (Med Chem Res, 2013).

These molecules were tested against Cannabinoid receptor 1 (Homo sapiens, UniProt P21554) (assay: Antagonist activity at CB1 receptor (unknown origin)).
Cannabinoid receptor 1, sequence (P21554 whole entry): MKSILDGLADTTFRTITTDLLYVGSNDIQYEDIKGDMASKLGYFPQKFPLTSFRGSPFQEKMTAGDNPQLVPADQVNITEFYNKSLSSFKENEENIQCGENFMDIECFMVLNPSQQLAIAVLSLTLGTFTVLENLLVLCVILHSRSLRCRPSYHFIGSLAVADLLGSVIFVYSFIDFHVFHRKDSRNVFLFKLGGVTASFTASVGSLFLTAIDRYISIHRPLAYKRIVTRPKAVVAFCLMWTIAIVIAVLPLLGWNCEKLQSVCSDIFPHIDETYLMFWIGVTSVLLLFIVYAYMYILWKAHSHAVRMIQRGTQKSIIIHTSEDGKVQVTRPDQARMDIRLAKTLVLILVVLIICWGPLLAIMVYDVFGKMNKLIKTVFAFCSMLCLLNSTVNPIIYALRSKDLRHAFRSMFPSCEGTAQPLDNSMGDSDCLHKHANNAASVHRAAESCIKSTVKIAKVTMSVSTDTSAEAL

Structure (SMILES)	Ki [nM]
COc1ccc(-c2c(F)c(C(=O)NN3CCCCC3)nn2-c2ccc(Cl)cc2Cl)cc1	18.2
O=C(NN1CCCCC1)c1nn(-c2ccc(Cl)cc2Cl)c2c1CCCc1c-2cccc1[N+](=O)[O-]	100
CCCCCCCn1nc(C(=O)NN2CCCCC2)c(C)c1-c1ccccc1	203
CCCCCn1nc(C(=O)NN2CCCCC2)cc1-c1ccccc1	256
Cc1c(C(=O)NCC23CC4CC(CC(C4)C2)C3)nn(CCCCCCl)c1-c1ccccc1	6
CCCCCn1nc(C(=O)NN2CCCCC2)c(C)c1-c1ccc(Br)cc1	81.8
Cc1c(C(=O)NN2CCCCC2)nn(-c2ccc(Cl)cc2Cl)c1-c1ccc(Br)cc1	76.7
Cc1c(C(=O)N(C)c2ccccc2)nn(-c2ccc(Cl)cc2Cl)c1-c1ccc(Br)cc1	31.1
Cc1c(C(=O)NN2CCCCC2)nn(C)c1-c1ccc(Cl)cc1	34700
COCc1c(C(=O)NC2CCCCC2)nn(-c2ccc(Cl)cc2Cl)c1C1C2(C)CCC(C2)C1(C)C (stereo not drawn)	241
O=C(NC1CCCCC1)c1nn(-c2ccc(Cl)cc2Cl)c(-c2ccc(Br)cc2)c1CO	6
O=C(NN1CCCCC1)c1nn(-c2ccc(Cl)cc2Cl)c2c1CCCc1cc([N+](=O)[O-])ccc1-2	63
CCCn1nc(C(=O)NN2CCCCC2)c(C)c1-c1ccccc1	3560
Cc1c(C(=O)NCCO)nn(-c2ccc(Cl)cc2Cl)c1-c1ccc(Br)cc1	1120
CCCCCCCn1nc(C(=O)NN2CCCCC2)cc1-c1ccccc1	327
Cc1c(NC(=O)N2CCCCC2)nn(-c2ccc(Cl)cc2Cl)c1-c1ccc(Br)cc1	47
Cc1c(C(=O)NN2CCOCC2)nn(-c2ccc(Cl)cc2Cl)c1-c1ccc(I)cc1	13.2
Cc1c(C(=O)NN2CCCCC2)nn(-c2ccc(Cl)cc2Cl)c1-c1ccc(N)cc1	81.5
Cc1c(C(=O)Nc2ccc(-c3ccsc3)cc2)nn(CCCCCCl)c1-c1ccccc1	19.8
Cc1c(C(=O)NN2CCCCC2)nn(C2CCCCC2)c1-c1ccccc1	605
Cc1ccc(Cn2nc(C(=O)NC3CC4CCC3(C)C4(C)C)c(C)c2-c2ccc(Cl)c(C)c2)cc1 (stereo not drawn)	400
Cc1c(C(=O)NN2CCOCC2)nn(-c2ccc(Cl)cc2Cl)c1-c1ccccc1Br	11.7
Cc1c(C(=O)NN)nn(-c2ccc(Cl)cc2Cl)c1-c1ccc(Cl)cc1	374
